Reference: patent US9617283B2, “Bicyclic heterocycle compounds and their uses in therapy” (ASTEX THERAPEUTICS LIMITED, priority 2012, dated 2017)
Counter-ions that a name gives are not always drawn. Like-named read-outs stand apart in the source and are kept apart here.

System: EVSA-T (human breast carcinoma)
Experiment: Anti-proliferative activity, Alamar Blue assay, EVSA-T
Assay type: cell-based
Conditions: Homo sapiens
[1] = EVSA-T, 72 h, EVSA-T cell line, 72 hours, Alamar Blue, read-out: EVSA-T prolif
[2] = EVSA-T, read-out: EC50 in EVSA-T cell line assays

Experimental: Anti-Proliferative Activity
The method is based on the ability of viable cells to reduce resazurin to its fluorescent product resorufin. For each proliferation assay cells are plated onto 96 well plates and allowed to recover for 16 hours prior to the addition of inhibitor compounds (in 0.1% DMSO v/v) for a further 72 hours. […] The anti-proliferative activities of compounds of the invention can be determined by measuring the ability of the compounds to inhibit growth in 3 cancer cell lines: • EVSA-T (human breast carcinoma) DSMZ cat. no.

SMILES | EC50 [1] | EC50 [2] | EC50 (EVSA-T cell line, 72 hours, Alamar Blue, read-out: EVSA-T prolif)
C[C@@H]1CN(CC(=O)N2CC(C)(C)c3ncc(Cc4ccc(F)cc4)cc32)[C@@H](CN2C[C@H](C)N(C)CC2=O)CN1 [Example 43, (5S)-1-{[(2R,5R)-1-(2-{6-[(4-Fluorophenyl)methyl]-3,3-dimethyl-1H,2H,3H-pyrrolo[3,2-b]pyridin-1-yl}-2-oxoethyl)-5-methylpiperazin-2-yl]methyl}-4,5-dimethylpiperazin-2-one dihydrochloride] | 12 nM | < 1000 nM | 
C[C@H]1CC(=O)N(C[C@H]2CN[C@H](C)CN2CC(=O)N2CC(C)(C)c3nnc(Cc4ccc(F)cc4F)cc32)C1 [Example 46, (4S)-1-{[(2R,5R)-1-(2-{3-[(2,4-Difluorophenyl)methyl]-7,7-dimethyl-5H,6H,7H-pyrrolo[3,2-c]pyridazin-5-yl}-2-oxoethyl)-5-methylpiperazin-2-yl]methyl}-4-methylpyrrolidin-2-one dihydrochloride] | 2.3 nM | < 1000 nM | 
CCCC(F)(F)c1cc2c(nn1)C(C)(C)CN2C(=O)CN1C[C@@H](C)NC[C@@H]1CN1CC(C)(C)CC1=O [Example 55, 1-{[(2R,5R)-1-{2-[3-(1,1-Difluorobutyl)-7,7-dimethyl-5H,6H,7H-pyrrolo[3,2-c]pyridazin-5-yl]-2-oxoethyl}-5-methylpiperazin-2-yl]methyl}-4,4-dimethylpyrrolidin-2-one] |  | < 1000 nM | 
C[C@@H]1CN(CC(=O)N2CC(C)(C)c3nnc(Cc4ccc(F)cc4)cc32)[C@@H](CN2Cc3ccccc3C2=O)CN1 [Example 61, 2-{[(2R,5R)-1-(2-{3-[(4-Fluorophenyl)methyl]-7,7-dimethyl-5H,6H,7H-pyrrolo[3,2-c]pyridazin-5-yl}-2-oxoethyl)-5-methylpiperazin-2-yl]methyl}-2,3-dihydro-1H-isoindol-1-one dihydrochloride] |  |  | 1.5 nM

Continued, in another order:

EC50 [1] | EC50 [2] | SMILES | EC50 (EVSA-T cell line, 72 hours, Alamar Blue, read-out: EVSA-T prolif)
2.9 nM | < 1000 nM | C[C@H]1CC(=O)N(C[C@H]2CN[C@H](C)CN2CC(=O)N2CC(C)(C)c3nnc(Cc4ccc(F)cc4)cc32)C1 [Example 47, (4S)-1-{[(2R,5R)-1-(2-{3-[(4-Fluorophenyl)methyl]-7,7-dimethyl-5H,6H,7H-pyrrolo[3,2-c]pyridazin-5-yl}-2-oxoethyl)-5-methylpiperazin-2-yl]methyl}-4-methylpyrrolidin-2-one dihydrochloride] | 
 | < 1000 nM | C[C@@H]1CN(CC(=O)N2CC(C)(C)c3nnc(Cc4ccc(F)cc4F)cc32)[C@@H](CN2C[C@H](C)OCC2=O)CN1 [Example 52, (6S)-4-{[(2R,5R)-1-(2-{3-[(2,4-Difluorophenyl)methyl]-7,7-dimethyl-5H,6H,7H-pyrrolo[3,2-c]pyridazin-5-yl}-2-oxoethyl)-5-methylpiperazin-2-yl]methyl}-6-methylmorpholin-3-one] | 
 | < 1000 nM | C[C@@H]1CN(CC(=O)N2CC(C)(C)c3nnc(Cc4ccc(F)cc4)cc32)[C@@H](CN2C[C@H](C)OCC2=O)CN1 [Example 53, (6S)-4-{[(2R,5R)-1-(2-{3-[(4-Fluorophenyl)methyl]-7,7-dimethyl-5H,6H,7H-pyrrolo[3,2-c]pyridazin-5-yl}-2-oxoethyl)-5-methylpiperazin-2-yl]methyl}-6-methylmorpholin-3-one] | 
 | < 1000 nM | CCCC(F)(F)c1cc2c(nn1)C(C)(C)CN2C(=O)CN1C[C@@H](C)NC[C@@H]1CN1C[C@H](C)OCC1=O [Example 57, (6S)-4-{[(2R,5R)-1-{2-[3-(1,1-Difluorobutyl)-7,7-dimethyl-5H,6H,7H-pyrrolo[3,2-c]pyridazin-5-yl]-2-oxoethyl}-5-methylpiperazin-2-yl]methyl}-6-methylmorpholin-3-one] | 
 | < 1000 nM | CCCC(F)(F)c1cc2c(nn1)C(C)(C)CN2C(=O)CN1C[C@@H](C)NC[C@@H]1CN1C(=O)CO[C@@H](C)[C@H]1C [Example 58, (5R,6S)-4-{[(2R,5R)-1-{2-[3-(1,1-Difluorobutyl)-7,7-dimethyl-5H,6H,7H-pyrrolo[3,2-]pyridazin-5-yl]-2-oxoethyl}-5-methylpiperazin-2-yl]methyl}-5,6-dimethylmorpholin-3-one] | 
